# Where “and” joins values, the source holds several entries; their conditions need not be identical. Identical values can stand only once.
# Test system: 439559-082-T-J2-PDC complex spheroid growth
# Assay: Anticancer human tumor 439559-082-T-J2-PDC patient-derived colon adenocarcinoma cell line growth inhibition [Asc]
# Conditions: for viability, T/C: stronger effect = lower value
# Method: Multicellular complex tumor spheroid response to apoptosis pathway targeting inhibitors Alrizomadlin, Pelcitoclax, and Dasminapant in combination with a variety of drugs and investigational agents in selected tumor cell lines
# The MDM2 inhibitor alrizomadlin, the Bcl-2/Bcl-xL inhibitor pelcitoclax, and the IAPs inhibitor dasminapant were evaluated both individually and in combination with standard of care and investigational anticancer small molecules within a complex spheroid model of solid tumors. . Complex spheroids include a stromal component modeled by human endothelial cells (HUVEC) and fibroblasts modeled by human mesenchymal stem cells (MSCs). The concentration ranges selected for each drug and investigational agent were based upon clinically achievable concentrations if the clinical Cmax of the agent was known.
# Compounds. The drugs and investigational agents: alrizomadlin (APG-115; NSC831270), pelcitoclax (APG-1252; NSC835773), dasminapant (APG-1387;NSC834197), TAK-243 (NSC785004), copanlisib (NSC809693), olaparib (NSC753686), talazoparib (NSC767125), cobimetinib (NSC 768068), eltanexor (KPT-8602, NSC 794443), abemaciclib (NSC 768073), sotorasib (NSC818433), adagrasib (NSC 831453), MRTX-1133 (NSC 836407), Iadademestat (ORY1001, NSC 806812), and RMC-4630 (NSC839698), were obtained from the NCI Developmental Therapeutics Program Chemical Repository. The FDA-approved anticancer drug set is available from the Developmental Therapeutics Program at https://dtp.cancer.gov/organization/dscb/obtaining/available plates.htm. […] The stock solutions were prepared in dimethyl sulfoxide (DMSO, Sigma-Aldrich, St. Louis, MO, cat. D2650) at 800-fold the tested concentration and stored at -70 degrees C prior to their use. All drugs and investigational agents were tested over a range starting from a high concentration at or near the clinical Cmax and decreasing in half-log increments. If the clinical Cmax for an agent had not been determined, the highest concentration tested was 10 microM.
# The patient-derived cancer (PDC) cell lines include five colon adenocarcinomas: 186277-243-T-J2-PDC, 616215-338-R-J1-PDC, 439559-082-T-J2-PDC, 463943-066-T-J2-PDC, and 519858-162-T-J1-PDC; three pancreatic carcinomas: 323965-272-R-J2-PDC, 521955-158-R6-J3-PDC, and 521955-158-R2-J5-PDC; two uterine sarcomas: 327498-152-R-J2-PDC and 993429-296-R-J1-PDC; two rhabdomyosarcomas: 755483-174-R-J1-PDC and 772245-204-R-J1-PDC; two soft tissue sarcomas: 126254-015-R-J1-PDC and 494315-158-R-J1-PDC; two malignant fibrous histiocytomas: 317291-083-R-J1-PDC and 596521-263-R-J1-PDC; two breast carcinomas: 171881-019-R-J1-PDC and 885512-296-R-J2-PDC; and one ovarian carcinoma: 6556581-035-R-J-PDC were obtained from the NCI PDMR, (https://pdmr.cancer.gov). The established cell lines HSSY-2 synovial sarcoma (RRID:CVCL 8719), SYO-1 synovial sarcoma (RRID:CVCL_7146), MPNST malignant peripheral neural sheath tumor were obtained from the Sloan Kettering Institute. The following established cell lines were purchased from the American Type Culture Collection (ATCC, Manassas, VA), Sor the received from the NCI repository:, PANC-1 pancreatic carcinoma (CRL-1469, RRID:CVCL_0480), OVCAR-5 ovarian carcinoma (RRID:CVCL_1628), OVCAR-8 ovarian carcinoma (RRID:CVCL_1629), , MCF-7 breast carcinoma (CRL-12584, RRID:CVCL_0031), MDA-MB-231 breast carcinoma (CRL-12532, RRID:CVCL_0062), NCI-H1876 small cell lung carcinoma (CRL-5902, RRID:CVCL_1503), NCI-H510A small cell lung carcinoma (HTB-184, RRID:CVCL_1565), NCI-H1417 (CRL-5869, RRID:CVCL_1469), and NCI-H196 small cell lung carcinoma (CRL-5823, RRID:CVCL_1509). Dr. Peter Houghton (Greehey Children's Cancer Research Institute, University of Texas Health Science Center, San Antonio, TX) provided Rh-18 rhabdomyosarcoma (RRID:CVCL_1659). Pooled donor human umbilical vein endothelial cells (HUVEC, Lonza, cat. CC-2519) and human mesenchymal stem cells (hMSC, Lonza, cat. PT-2501) were purchased from Lonza (Walkersville, MD).
# Cell Culture. […]
# 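Note: spheroids exposed to agents for 7 days starting day 3 after seeding.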
# 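Throughout, for viability, T/C: percent of DMSO vehicle control viability with 100% = vehicle.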
compound,measurement,setting,value
Cc1nc(N2CCC3(CC2)COC(C)C3N)c(CO)nc1Sc1ccnc(N)c1Cl (centres undefined) + Cc1c(S(C)(=O)=O)c(-c2cc(F)cc(N3CCN(c4ccc(NS(=O)(=O)c5ccc(NC(CCN6CCC(C(=O)OCCCP(=O)(O)O)CC6)CSc6ccccc6)c(S(=O)(=O)C(F)(F)F)c5)cc4)CC3)c2)c(-c2ccc(Cl)cc2)n1C(C)C,IC50,"curve of first compound, second compound 0.1 µM",> 3 µM
same,IC50,"curve of first compound, second compound 0.316 µM",> 3 µM
same,IC50,"curve of first compound, second compound 1 µM",> 3 µM
same,IC50,"curve of first compound, second compound 3.16 µM",> 3 µM
same,IC50,"curve of first compound, second compound 10 µM",2.75 µM
same,"viability, T/C","second compound 0.1 µM, first compound 0.00949 µM",109%
same,"viability, T/C","second compound 0.1 µM, first compound 0.03 µM",115%
same,"viability, T/C","second compound 0.1 µM, first compound 0.0949 µM",100%
same,"viability, T/C","second compound 0.1 µM, first compound 0.3 µM",82.6%
same,"viability, T/C","second compound 0.1 µM, first compound 0.949 µM",86.5%
same,"viability, T/C","second compound 0.1 µM, first compound 3 µM",73.4%
same,"viability, T/C","second compound 0.316 µM, first compound 0.00949 µM",96.4%
same,"viability, T/C","second compound 0.316 µM, first compound 0.03 µM",107%
same,"viability, T/C","second compound 0.316 µM, first compound 0.0949 µM",103%
same,"viability, T/C","second compound 0.316 µM, first compound 0.3 µM",84.5%
same,"viability, T/C","second compound 0.316 µM, first compound 0.949 µM",77.9%
same,"viability, T/C","second compound 0.316 µM, first compound 3 µM",72.4%
same,"viability, T/C","second compound 1 µM, first compound 0.00949 µM",89.5%
same,"viability, T/C","second compound 1 µM, first compound 0.03 µM",97.5%
same,"viability, T/C","second compound 1 µM, first compound 0.0949 µM",98.2%
same,"viability, T/C","second compound 1 µM, first compound 0.3 µM",76.4%
same,"viability, T/C","second compound 1 µM, first compound 0.949 µM",63%
same,"viability, T/C","second compound 1 µM, first compound 3 µM",70.4%
same,"viability, T/C","second compound 3.16 µM, first compound 0.00949 µM",84%
same,"viability, T/C","second compound 3.16 µM, first compound 0.03 µM",95.7%
same,"viability, T/C","second compound 3.16 µM, first compound 0.0949 µM",92.1%
same,"viability, T/C","second compound 3.16 µM, first compound 0.3 µM",63.6%
same,"viability, T/C","second compound 3.16 µM, first compound 0.949 µM",65.5%
same,"viability, T/C","second compound 3.16 µM, first compound 3 µM",56.7%
same,"viability, T/C","second compound 10 µM, first compound 0.00949 µM",74.3%
same,"viability, T/C","second compound 10 µM, first compound 0.03 µM",75%
same,"viability, T/C","second compound 10 µM, first compound 0.0949 µM",72.7%
same,"viability, T/C","second compound 10 µM, first compound 0.3 µM",60.2%
same,"viability, T/C","second compound 10 µM, first compound 0.949 µM",60.3%
same,"viability, T/C","second compound 10 µM, first compound 3 µM",49.1%
C=CC(=O)N1CCN(c2nc(=O)n(-c3c(C)ccnc3C(C)C)c3nc(-c4c(O)cccc4F)c(F)cc23)C(C)C1 (centres undefined),"viability, T/C",compound 0.0316 µM,96.5% and 102% (2×)
same,"viability, T/C",compound 0.1 µM,114% and 106% and 101%
same,"viability, T/C",compound 0.316 µM,103% and 102% and 108%
same,"viability, T/C",compound 1 µM,104% and 106% and 114%
same,"viability, T/C",compound 3.16 µM,108% and 106% and 92.2%
same,"viability, T/C",compound 10 µM,103% (2×) and 101%
same,IC50,curve of compound,> 10 µM
O=C(c1cc(Cc2n[nH]c(=O)c3ccccc23)ccc1F)N1CCN(C(=O)C2CC2)CC1,"viability, T/C",compound 0.0316 µM,98.8% and 105% and 96.8%
same,"viability, T/C",compound 0.1 µM,111% and 109% and 90.9%
same,"viability, T/C",compound 0.316 µM,99.9% and 95% and 96.8%
same,"viability, T/C",compound 1 µM,101% and 97.8% and 111%
same,"viability, T/C",compound 3.16 µM,105% and 104% and 106%
same,"viability, T/C",compound 10 µM,102% and 100% and 83.9%
same,IC50,curve of compound,> 10 µM
CCN1C(C(=O)NC23CCC(C(=O)O)(CC2)CC3)C(c2cccc(Cl)c2F)C2(C(=O)Nc3cc(Cl)ccc32)C12CCCCC2 (centres undefined),"viability, T/C",compound 0.00949 µM,105% and 100%
same,"viability, T/C",compound 0.03 µM,101% [middle of 15 runs]
same,"viability, T/C",compound 0.0949 µM,99.9% [middle of 15 runs]
same,"viability, T/C",compound 0.3 µM,96.8% [middle of 15 runs]
same,"viability, T/C",compound 0.949 µM,102% [middle of 15 runs]
same,"viability, T/C",compound 3 µM,92.1% [middle of 15 runs]
same,IC50,"compound alone, run of 10/11/2022",> 3 µM
same,IC50,curve of compound,> 3 µM
CCN1CCN(Cc2ccc(Nc3ncc(F)c(-c4cc(F)c5nc(C)n(C(C)C)c5c4)n3)nc2)CC1,"viability, T/C",compound 0.00316 µM,105% and 98.4% and 99.2%
same,"viability, T/C",compound 0.01 µM,111% and 104% and 97.7%
same,"viability, T/C",compound 0.0316 µM,89.4% and 96.5% and 95.8%
same,"viability, T/C",compound 0.1 µM,92% and 89.7% and 89.2%
same,"viability, T/C",compound 0.316 µM,93.1% and 92.7% and 81.8%
same,"viability, T/C",compound 1 µM,84.8% and 84.4% and 70.8%
same,IC50,curve of compound,> 1 µM
